Measurements taken from patent US6124456A, “Pyrazolopyridine compound and pharmaceutical use thereof” (Fujisawa Pharmaceutical Co., Ltd., priority 1996, dated 2000).

System: human A1 receptor
Test: Adenosine antagonistic activity: radioligand binding with 3H-DPCPX
Details: at the dose of 1.0×10^-7 M; radioligand 3H-DPCPX 2×10^-9 M
Text: Test: Adenosine Antagonistic Activity
The adenosine antagonistic activity of the test compound was examined by radioligand binding techniques using 8-cyclopentyl-1,3-dipropylxanthine, dipropyl-2,3-^3 H(N)] (^3 H-DPCPX, 2×10^-9 M) for human A^1 receptor.

inhibition (%): more than 90%
SMILES: CN1CCC(n2nc(-c3c(-c4ccccc4)nn4ccccc34)ccc2=O)CC1 [Example 2, 3-[2-(1-methylpiperidin-4-yl)-3-oxo-2,3-dihydropyridazin-6-yl]-2-phenylpyrazolo[1,5-a]pyridine]
